# No end group written: not given here.
# Columns and labels:
# [1] = Surface Plasmon Resonance binding of compounds to immobilized 3-Lipid II; conditions: SPR, FIG. 5
# Protocol: The present inventors examined if the identified compounds themselves directly interact with Lipid II, which would be expected if they mimic the binding of HNP-1. Binding of compounds was tested directly using Surface Plasmon Resonance with 3-Lipid II immobilized on the chip surface (FIG. 5).
# [2] = test system: Staphylococcus aureus ATCC 29213; experiment: vCC antibacterial assay, S. aureus; assay type: cell-based; conditions: 30 minutes exposure, 500 to 1.95 μM
# Protocol: (§1) The inventors have now tested the bacterial killing capacity of the identified compounds. The antibacterial activity was determined using the vCC assay as discussed in Ericksen, B., Wu, Z., Lu, W. and Lehrer, R. I. (2005), “Antibacterial activity and specificity of the six human {alpha}-defensins. Antimicrob Agents” Chemother 49, 269-75.). All compounds were tested initially for killing of Staphylococcus aureus ATCC 29213. All compounds were dissolved in DiMethylSulfylOxide (DMSO) and exposed to bacteria for 30 minutes in concentrations ranging from 500 to 1.95 μM. Compounds effectively killing S. aureus were subsequently tested against E. coli ATCC 25922 to assay for strain-selectivity.
# [3] = test system: intestinal epithelial cell line Caco-2; experiment: Caco-2 cell viability, MTT assay; assay type: cell-based; conditions: Caco-2, 24 h
# Protocol: Caco-2 cells were seeded at 2. 10^5 cells/ml and exposed to compounds ranging in concentration from 500 to 3.7125 μM. Cell viability was determined after 24 h by the MTT assay and is expressed as a percentage of the viability of untreated cells.
# E. coli ATCC 25922 = experiment: vCC antibacterial assay, E. coli (strain-selectivity); assay type: cell-based; conditions: 30 minutes exposure, 500 to 1.95 μM
# Protocol: as §1
# S. aureus = conditions: literature (Ericksen 2005; Wei 2009); cited from earlier work
# [4] = ANTS/DPX leakage assay from large unilamellar vesicles; conditions: POPG LUVs, panel of six human α-defensins, FIG. 1
# Protocol: Large unilamellar vesicles (LUVs) with the low molecular weight fluorophore/quencher pair (ANTS/DPX) encapsulated were prepared using the standard extrusion method. Specifically, phospholipids were dissolved in chloroform at a desired molar ratio, dried as a film by solvent evaporation. After removal of residual solvent, the lipid film was hydrated in the fluorescent solution containing 5 mM HEPES, 12.5 mM ANTS, 45 mM DPX, and 20 mM NaCl, pH 7.0, freeze-thawed for 10 cycles and extruded 10 times through 0.4-μm polycarbonate membranes. LUVs were separated from unencapsulated materials by gel filtration chromatography using a Sepharose CL-4B column eluted with 5 mM HEPES, 100 mM NaCl, pH 7.4 (high-salt). For leakage assays in a low-salt buffer, purified vesicles were further diluted with 5 mM HEPES containing 10 mM NaCl, pH 7.4.
# Leakage of ANTS from LUVs, monitored on a LS-55 Perkin Elmer luminescence spectrometer, was characterized by an increase in fluorescence, which was quenched by DPX when encapsulated together inside liposomes (Ellens, H., et al., 1985, “H+- and Ca2+-induced fusion and destabilization of liposomes,” Biochemistry 24:3099-3106). 270 μl ANTS/DPX-encapsulated LUVs (in either high-salt or low-salt buffers) were added to each well of a 96-well plate to a final lipid concentration of 600 μM. 30 μl H2O was added to the first well of each row as a blank, and 30 μl 2.5% (v/v) Triton X-100 to the last (twelfth) well as the control for 100% leakage. Upon addition of 30 μl of a twofold dilution series of defensin, the fluorescence signal was recorded at 515 nm with an excitation wavelength of 353 nm, 10 nm bandwidths and a 390 nm cut-off filter in the emission path. Percent leakage is expressed as: % leakage=((Ft−F0)/(F100−F0))×100 where Ft is the fluorescence determined at different time points after addition of defensin, F0 is the background fluorescence of the “blank” cells, and F100 is the fluorescence of the control cells containing 0.25% Triton X-100. Lipid II Purification
# Defensins are believed to kill bacteria by permeabilizing the membrane, causing leakage of intracellular content and eventually cell lysis and death. The present inventors tested the ability of six human α-defensins to induce leakage of fluorophores encapsulated in LUVs (See FIG. 1). […] (A) At high salt concentration (5 mM HEPES, 100 mM NaCl, pH 7.4). (B) At low salt concentration (5 mM HEPES, 10 mM NaCl, pH 7.4). LUVs were 250 nm in diameter and 600 μM (phospholipids) in concentration.
# (A) Effects of surface charge on HNP1-induced leakage from LUVs of four different compositions: POPC (circle, surface charge=0), POPC/POPG=3:2 (square, surface charge=−0.4), POPC/POPG=2:3 (triangle, surface charge=−0.6), and POPG (diamond, surface charge=−1). (B) LUV (POPG:DPPC 1:1) leakage induced by L-HNP1 (circles) or D-HNP1 (squares). A two-fold dilution series of HNP1 peptides from 0.19 to 100 μg/ml was incubated with 600 μM LUVs for one hour before readings were taken. Error bars indicate the standard error in triplicate experiments.
Molecule,binding to 3-Lipid II immobilized on the chip surface [1],killing of S. aureus [2],cytotoxicity [3],bactericidal activity against E. coli (E. coli ATCC 25922),bactericidal activity against S. aureus / Gram-positive bacteria (S. aureus),membrane activity (leakage of ANTS-DPX from POPG LUVs) [4]
"3-ethyl-5-methyl-4-phenyl-2-[3-(1,3,3-trimethyl-1,3-dihydro-2H-indol-2-ylidene)prop-1-en-1-yl]-1,3-thiazol-3-ium [Compound 7771-0701]",bind to Lipid II,very efficient in killing of S. aureus,,,,
"Oc1ccc(C(c2ccc(O)cc2)c2ccc(F)cc2)cc1 [Compound 0251-0215, 4-[(4-fluorophenyl)(4-hydroxyphenyl)methyl]phenol]",bind to Lipid II,very efficient in killing of S. aureus,,,,
"OCc1ccc2c(c1)C1c3ccccc3C2c2ccccc21 [Compound 5100015, pentacyclo[6.6.6.0˜2,7˜.0˜9,14˜.0˜15,20˜]icosa-2,4,6,9,11,13,15,17,19-nonaen-4-ylmethanol]",bind to Lipid II,very efficient in killing of S. aureus,,,,
"CC[n+]1c(/C=C/C=C2C=C(/C=C/N(C)c3ccccc3)CC(C)(C)C/2)sc2ccccc21 [Compound 5107930, 2-[3-(5,5-dimethyl-3-{2-[methyl(phenyl)amino]vinyl}-2-cyclohexen-1-ylidene)-1-propen-1-yl]-3-ethyl-1,3-benzothiazol-3-ium iodide]",,Effectively kills S. aureus at low concentrations,Displays relatively low cytotoxicity,Shows little bactericidal activity against E. coli,,
"HNP4: fourth human neutrophil α-defensin (VCSCRLVFCRRTELRVGNCLIGGVSFTYCCTRV; not fully specified; ends and bridges not checked; UniProt P12838 64-96, looked up)",,,,,ineffective against Gram-positive bacteria,most membrane active defensin in the panel of six
"HD-5: α-defensin Human Defensin 5 (peptide, UniProt Q01523 20-94, looked up, Defensin-5) Defensin alpha 5: ESLQERADEATTQKQSGEDNQDLAISFAGNGLSALRTSGSQARATCYCRTGRCATRESLSGVCEISGRLYRLCCR",,,,,potently bactericidal,little membrane activity even at high concentrations

# — patent US8796323B2, “Defensin-like molecules as novel antimicrobial agents” (University of Maryland, Baltimore, priority 2010, dated 2014)
